What was measured:
GST tagged PIP4KtypeIIA = target: T1, GST tagged PIP4KtypeIIA (Homo sapiens, UniProt P48426); test: ADP-glo kinase assay PIP4K 2A (PIP4KtypeIIA inhibition assay); type: biochemical; settings: Table 3; compounds listed under IC50 range headings; 10 uM ATP, 0.5 nM PIP4KIIA
T1 construct: made in house; host or cells: E. coli
T1 sequence (P48426 1-406): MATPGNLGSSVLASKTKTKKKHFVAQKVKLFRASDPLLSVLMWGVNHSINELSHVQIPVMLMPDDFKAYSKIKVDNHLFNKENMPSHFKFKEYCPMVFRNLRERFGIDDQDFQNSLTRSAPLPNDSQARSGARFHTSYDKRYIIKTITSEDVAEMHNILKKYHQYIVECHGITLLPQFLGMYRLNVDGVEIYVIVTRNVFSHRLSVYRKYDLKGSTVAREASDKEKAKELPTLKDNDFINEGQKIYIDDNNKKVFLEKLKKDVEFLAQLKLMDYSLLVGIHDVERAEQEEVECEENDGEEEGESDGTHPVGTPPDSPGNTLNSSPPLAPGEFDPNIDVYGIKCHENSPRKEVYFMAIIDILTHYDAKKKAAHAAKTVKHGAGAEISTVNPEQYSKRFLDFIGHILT
How it was run: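 Read-out was ADP-Glo luminescence converted to μM ADP, with IC50 plotted as % of no-inhibitor activity against log concentration. Reactions contained 10 μM ATP, 80 μM PI5P with DOPE carrier, and 0.5 nM GST-tagged PIP4KIIA (E. coli-expressed) in pH 7.3 HEPES/MgCl2 buffer with 5% DMSO. Enzyme and compound (≤4.8 μM) were preincubated 1 h at 27 °C before the 1 h reaction.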

GST tagged PIP4KtypeIIB = target: T2, GST tagged PIP4KtypeIIB (Homo sapiens, UniProt P78356); test: Trans-FI P kinase assay PIP4K2B (PIP4KtypeIIB inhibition assay); type: biochemical; settings: Table 4; compounds listed under IC50 range headings; 100 uM GTP, 5 nM PIP4KIIB; read-out: Trans-FI P kinase assays: PIP4K2B IC50
T2 construct: made in house; host or cells: E. coli
T2 sequence (P78356 1-416): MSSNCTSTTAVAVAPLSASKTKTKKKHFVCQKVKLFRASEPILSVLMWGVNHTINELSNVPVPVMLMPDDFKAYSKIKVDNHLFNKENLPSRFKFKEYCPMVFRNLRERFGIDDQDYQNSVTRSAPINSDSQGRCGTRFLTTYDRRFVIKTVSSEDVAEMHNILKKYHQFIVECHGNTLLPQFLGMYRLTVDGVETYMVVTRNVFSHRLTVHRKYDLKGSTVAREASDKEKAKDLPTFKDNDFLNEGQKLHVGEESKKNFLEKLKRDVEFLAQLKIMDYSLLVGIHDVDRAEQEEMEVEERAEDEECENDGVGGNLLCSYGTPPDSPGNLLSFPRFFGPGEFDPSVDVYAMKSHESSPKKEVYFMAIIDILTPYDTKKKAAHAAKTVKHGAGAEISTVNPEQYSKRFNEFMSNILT
How it was run: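 Transcreener FI fluorescence, converted to GDP by calibration, tracked product from 5 nM E. coli-expressed GST-PIP4KIIB acting on 80 uM PI5P (DOPE carrier) with 100 uM GTP. Compound (top 4.8 uM final, 5% DMSO) was preincubated 1 h at 27 C before the 2 h reaction; IC50 fitted from residual activity.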

Structure (SMILES)	IC50 (GST tagged PIP4KtypeIIA)	IC50 (GST tagged PIP4KtypeIIB)
C[C@H](O)c1cnc2c(c1)c(-c1cncc(-c3ccc(N4CCCC4=O)cc3)c1)cn2C [Example 294, (S)-1-(4-(5-(5-(1-hydroxyethyl)-1-methyl-1H-pyrrolo[2,3-b]pyridin-3-yl)pyridin-3-yl)phenyl)pyrrolidin-2-one]	100 to 1000 nM	100 to 1000 nM
O=C(NCc1ccccc1)c1cc2c(-c3cncc(-c4ccc(N5CCCC5=O)cc4)c3)ccnc2[nH]1 [Example 232, N-benzyl-4-(5-(4-(2-oxopyrrolidin-1-yl)phenyl)pyridin-3-yl)-1H-pyrrolo[2,3-b]pyridine-2-carboxamide]	100 to 1000 nM	10 to 100 nM
O=C(c1cc2c(-c3cncc(-c4ccc(N5CCCC5=O)cc4)c3)ccnc2[nH]1)N1CCCC1 [Example 235, 1-(4-(5-(2-(pyrrolidine-1-carbonyl)-1H-pyrrolo[2,3-b]pyridin-4-yl)pyridin-3-yl)phenyl)pyrrolidin-2-one]	100 to 1000 nM	100 to 1000 nM
O=C1CCCN1c1ccc(-c2cncc(-c3n[nH]c4ncc(C5CC5)cc34)c2)cc1 [Example 283, 1-(4-(5-(5-cyclopropyl-1H-pyrazolo[3,4-b]pyridin-3-yl)pyridin-3-yl)phenyl)pyrrolidin-2-one]	10 to 100 nM	10 to 100 nM
Cc1nn2c(=O)c(CCO)c(C)[nH]c2c1-c1cncc(-c2ccc(N3CCCC3=O)cc2)c1 [Example 284, 6-(2-hydroxyethyl)-2,5-dimethyl-3-(5-(4-(2-oxopyrrolidin-1-yl)phenyl)pyridin-3-yl)pyrazolo[1,5-a]pyrimidin-7(4H)-one]	100 to 1000 nM	100 to 1000 nM
O=C(Nc1nccc(-c2cncc(-c3ccc(N4CCCC4=O)cc3)c2)n1)C1CCC1 [Example 287, N-(4-(5-(4-(2-oxopyrrolidin-1-yl)phenyl)pyridin-3-yl)pyrimidin-2-yl)cyclobutanecarboxamide]	100 to 1000 nM	100 to 1000 nM
CC(O)c1cnc2c(c1)c(-c1cncc(-c3ccc(N4CCCC4=O)cc3)c1)c1n2CCC1 (stereo not drawn) [Example 351, 1-(4-(5-(3-(1-hydroxyethyl)-7,8-dihydro-6H-pyrido[3,2-b]pyrrolizin-5-yl)pyridin-3-yl)phenyl)pyrrolidin-2-one]	10 to 100 nM	10 to 100 nM
COCc1cc(-c2cncc(-c3ccc(N4CCCC4=O)cc3)c2)n2nc(C)cc2n1 [Example 285, 1-(4-(5-(5-(methoxymethyl)-2-methylpyrazolo[1,5-a]pyrimidin-7-yl)pyridin-3-yl)phenyl)pyrrolidin-2-one]	2500 to 5000 nM	2500 to 5000 nM
O=C(NCCc1ncc[nH]1)c1cc2c(-c3cncc(-c4ccc(N5CCCC5)cc4)c3)ccnc2[nH]1 [Example 244, N-(2-(1H-imidazol-2-yl)ethyl)-4-(5-(4-(pyrrolidin-1-yl)phenyl)pyridin-3-yl)-1H-pyrrolo[2,3-b]pyridine-2-carboxamide]	100 to 1000 nM	10 to 100 nM
O=C1CCCN1c1ccc(-c2cncc(-n3ccc4ncccc43)c2)cc1 [Example 253, 1-(4-(5-(1H-pyrrolo[3,2-b]pyridin-1-yl)pyridin-3-yl)phenyl)pyrrolidin-2-one]	100 to 1000 nM	100 to 1000 nM
O=C(NCCc1cncs1)c1cc2c(-c3cncc(-c4ccc(N5CCCC5=O)cc4)c3)ccnc2[nH]1 [Example 298, 4-(5-(4-(2-oxopyrrolidin-1-yl)phenyl)pyridin-3-yl)-N-(2-(thiazol-5-yl)ethyl)-1H-pyrrolo[2,3-b]pyridine-2-carboxamide]	100 to 1000 nM	10 to 100 nM
O=C(NCc1ccncc1)c1cc2c(-c3cncc(-c4ccc(N5CCCC5=O)cc4)c3)ccnc2[nH]1 [Example 233, 4-(5-(4-(2-oxopyrrolidin-1-yl)phenyl)pyridin-3-yl)-N-(pyridin-4-ylmethyl)-1H-pyrrolo[2,3-b]pyridine-2-carboxamide]	100 to 1000 nM	10 to 100 nM
CCc1ccc2c(c1)N(c1ccc(-c3cncc(-c4ccnc5c4cc4n5CCN(C)C4=O)c3)cc1)C(=O)C2 [Example 151, 4-(5-(4-(6-ethyl-2-oxoindolin-1-yl)phenyl)pyridin-3-yl)-7-methyl-8,9-dihydropyrido[3′,2′:4,5]pyrrolo[1,2-a]pyrazin-6 (7H)-one]	> 5000 nM	> 5000 nM
Cc1cccc2c1CC(=O)N2c1ccc(-c2cncc(-c3ccnc4c3cc3n4CCN(C)C3=O)c2)cc1 [Example 208, 7-methyl-4-(5-(4-(4-methyl-2-oxoindolin-1-yl)phenyl)pyridin-3-yl)-8,9-dihydropyrido[3′,2′:4,5]pyrrolo[1,2-a]pyrazin-6(7H)-one]	> 5000 nM	> 5000 nM
CN(C)S(=O)(=O)c1cnc2[nH]cc(-c3cncc(-c4ccc(N5CCCC5=O)cc4)c3)c2c1 [Example 295, N,N-dimethyl-3-(5-(4-(2-oxopyrrolidin-1-yl)phenyl)pyridin-3-yl)-1H-pyrrolo[2,3-b]pyridine-5-sulfonamide]	100 to 1000 nM	1000 to 2500 nM
CN(C(=O)c1ccc(-c2cncc(-c3ccnc4[nH]ncc34)c2)cc1)c1cccc(-n2ccnn2)c1 [Example 206, N-(3-(1H-1,2,3-triazol-1-yl)phenyl)-4-(5-(1H-pyrazolo[3,4-b]pyridin-4-yl)pyridin-3-yl)-N-methylbenzamide]	> 5000 nM	> 5000 nM
O=C(N[C@H]1C[C@H](c2ccccc2)C1)c1cc2c(-c3cncc(-c4ccc(N5CCCC5=O)cc4)c3)ccnc2[nH]1 [Example 297, 4-(5-(4-(2-oxopyrrolidin-1-yl)phenyl)pyridin-3-yl)-N-((1r,3r)-3-phenylcyclobutyl)-1H-pyrrolo[2,3-b]pyridine-2-carboxamide]	1000 to 2500 nM	> 5000 nM
CCc1c(C)[nH]c2c(-c3cncc(-c4ccc(N5CCCC5=O)cc4)c3)cnn2c1=O [Example 288, 6-ethyl-5-methyl-3-(5-(4-(2-oxopyrrolidin-1-yl)phenyl)pyridin-3-yl)pyrazolo[1,5-a]pyrimidin-7(4H)-one]	100 to 1000 nM	100 to 1000 nM
O=C1CCCN1c1ccc(-c2cncc(-c3c4n(c5ncc(Br)cc35)CCC4)c2)cc1 [Example 353, 1-(4-(5-(3-bromo-7,8-dihydro-6H-pyrido[3,2-b]pyrrolizin-5-yl)pyridin-3-yl)phenyl)pyrrolidin-2-one]	10 to 100 nM	10 to 100 nM
C[C@@H](O)c1cnc2c(c1)c(-c1cncc(-c3ccc(N4CCCC4=O)cc3)c1)cn2C [Example 293, (R)-1-(4-(5-(5-(1-hydroxyethyl)-1-methyl-1H-pyrrolo[2,3-b]pyridin-3-yl)pyridin-3-yl)phenyl)pyrrolidin-2-one]	100 to 1000 nM	100 to 1000 nM
O=C(NCCc1ccccn1)c1cc2c(-c3cncc(-c4ccc(N5CCCC5=O)cc4)c3)ccnc2[nH]1 [Example 246, 4-(5-(4-(2-oxopyrrolidin-1-yl)phenyl)pyridin-3-yl)-N-(2-(pyridin-2-yl)ethyl)-1H-pyrrolo[2,3-b]pyridine-2-carboxamide]	100 to 1000 nM	10 to 100 nM
O=C(NC1CC1c1ccccc1)c1cc2c(-c3cncc(-c4ccc(N5CCCC5=O)cc4)c3)ccnc2[nH]1 (stereo not drawn) [Example 264, 4-(5-(4-(2-oxopyrrolidin-1-yl)phenyl)pyridin-3-yl)-N-(2-phenylcyclopropyl)-1H-pyrrolo[2,3-b]pyridine-2-carboxamide]	100 to 1000 nM	10 to 100 nM
O=C(NCCc1ccc[nH]1)c1cc2c(-c3cncc(-c4ccc(N5CCCC5=O)cc4)c3)ccnc2[nH]1 [Example 261, N-(2-(1H-pyrrol-2-yl)ethyl)-4-(5-(4-(2-oxopyrrolidin-1-yl)phenyl)pyridin-3-yl)-1H-pyrrolo[2,3-b]pyridine-2-carboxamide]	100 to 1000 nM	10 to 100 nM
CN(C)C(=O)c1ccc(-c2cc(-c3ccnc4[nH]c(C(=O)N5CCCC5)cc34)cnc2N)nc1 [Example 141, 2′-amino-N,N-dimethyl-5′-(2-(pyrrolidine-1-carbonyl)-1H-pyrrolo[2,3-b]pyridin-4-yl)-[2,3′-bipyridine]-5-carboxamide]	100 to 1000 nM	10 to 100 nM
